Test results reported in US9695155B2, “Herbicidal substituted pyrimidinyloxy benzene compounds” (E. I. DU PONT DE NEMOURS AND COMPANY, priority 2013, dated 2017).

How the values were obtained:
[1] = test system: kochia; assay: Test A preemergence; type: in vivo, Kochia scoparia
Procedure, shortened: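 Injury scores run from 0, no effect, to 100, complete control, judged by eye against untreated plants roughly 10 days after treatment. Chemicals carried a surfactant in a non-phytotoxic solvent and went onto loam–sand soil preemergence or onto one- to two-leaf seedlings postemergence.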

[2] = test system: lambsquarters; assay: Test E preemergence; type: in vivo, Chenopodium album; conditions: for Lambsquarters plant response rating: scale 0 to 100 (0 no effect, 100 complete control); for Plant response rating, Lambsquarters: 125 g ai/ha, scale 0 to 100, 0 no effect, 100 complete control
Procedure, shortened: (§1)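 Test chemicals formulated in a non-phytotoxic solvent mixture containing a surfactant were applied preemergence to seeds in silt loam soil or postemergence to plants at the 1- to 4-leaf stage in potting mix. After 14 to 21 days in a greenhouse, injury was visually rated against controls on a 0-100 scale (0 = no effect, 100 = complete control).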

[3] = test system: wild poinsettia; assay: Test E preemergence; type: in vivo, Euphorbia heterophylla; conditions: for Poinsettia, Wild plant response rating: scale 0 to 100 (0 no effect, 100 complete control); for Plant response rating, Poinsettia, Wild: 125 g ai/ha, scale 0 to 100, 0 no effect, 100 complete control
Procedure, shortened: as §1

[4] = test system: surinam grass; assay: Test E preemergence; type: in vivo, Brachiaria decumbens; conditions: for Surinam Grass plant response rating: scale 0 to 100 (0 no effect, 100 complete control); for Plant response rating, Surinam Grass: 125 g ai/ha, scale 0 to 100, 0 no effect, 100 complete control
Procedure, shortened: as §1

[5] = test system: large (Lg) crabgrass; assay: Test E preemergence; type: in vivo, Digitaria sanguinalis; conditions: for Crabgrass, Large plant response rating: scale 0 to 100 (0 no effect, 100 complete control); for Plant response rating, Crabgrass, Large: 125 g ai/ha, scale 0 to 100, 0 no effect, 100 complete control
Procedure, shortened: as §1

[6] = test system: fall panicum; assay: Test E preemergence; type: in vivo, Panicum dichotomiflorum; conditions: for Panicum, Fall plant response rating: scale 0 to 100 (0 no effect, 100 complete control); for Plant response rating, Panicum, Fall: 125 g ai/ha, scale 0 to 100, 0 no effect, 100 complete control
Excerpt: Seeds of plant species selected from corn (Zea mays), soybean (Glycine max), velvetleaf (Abutilon theophrasti), lambsquarters (Chenopodium album), wild poinsettia (Euphorbia heterophylla), palmer pigweed (Amaranthus palmeri), waterhemp (common waterhemp, Amaranthus rudis), surinam grass (Brachiaria decumbens), large (Lg) crabgrass (Digitaria sanguinalis), Brazilian crabgrass (Digitaria horizontalis), fall panicum (Panicum dichotomiflorum), giant foxtail (Setaria faberii), green foxtail (Setaria viridis), goosegrass (Eleusine indica), johnsongrass (Sorghum halepense), ragweed (common ragweed, Ambrosia elatior), barnyardgrass (Echinochloa crus-galli), sandbur (southern sandbur, Cenchrus echinatus), arrowleaf sida (Sida rhombifolia), Italian ryegrass (Lolium multiflorum), dayflower (Virginia (VA) dayflower, Commelina virginica), field bindweed (Convolvulus arvensis), morningglory (Ipomoea coccinea), nightshade (eastern black nightshade, Solanum ptycanthum), kochia (Kochia scoparia), yellow nutsedge (Cyperus esculentus), cocklebur (common cocklebur, Xanthium strumarium), smartweed (ladysthumb smartweed, and hairy beggarticks (Bidens pilosa), were planted into a silt loam soil and treated preemergence with test chemicals formulated in a non-phytotoxic solvent mixture which included a surfactant.
At the same time, plants from these crop and weed species and also horseweed (Canada horseweed, Conyza canadensis), waterhemp_RES1, (ALS & Triazine resistant common waterhemp, Amaranthus rudis), and waterhemp_RES2, (ALS & HPPD resistant common waterhemp, Amaranthus rudis) were planted in pots containing Redi-Earth® planting medium (Scotts Company, 14111 Scottslawn Road, Marysville, Ohio 43041) comprising spaghnum peat moss, vermiculite, wetting agent and starter nutrients were treated with postemergence applications of test chemicals formulated in the same manner. Plants ranged in height from 2 to 18 cm for postemergence treatments (1- to 4-leaf stage). Treated plants and controls were maintained in a greenhouse for 14 to 21 days, after which time all species were compared to controls and visually evaluated. Plant response ratings, summarized in Table E, are based on a scale of 0 to 100 where 0 is no effect and 100 is complete control. A dash (-) response means no test result.

[7] = test system: goosegrass; assay: Test E preemergence; type: in vivo, Eleusine indica; conditions: for Goosegrass plant response rating: scale 0 to 100 (0 no effect, 100 complete control); for Plant response rating, Goosegrass: 125 g ai/ha, scale 0 to 100, 0 no effect, 100 complete control
Procedure, shortened: as §1

[8] = test system: johnsongrass; assay: Test E preemergence; type: in vivo, Sorghum halepense; conditions: for Johnsongrass plant response rating: scale 0 to 100 (0 no effect, 100 complete control); for Plant response rating, Johnsongrass: 125 g ai/ha, scale 0 to 100, 0 no effect, 100 complete control
Procedure, shortened: as §1

[9] = test system: ragweed; assay: Test E preemergence; type: in vivo, Ambrosia elatior; conditions: for Ragweed plant response rating: scale 0 to 100 (0 no effect, 100 complete control); for Plant response rating, Ragweed: 125 g ai/ha, scale 0 to 100, 0 no effect, 100 complete control
Procedure, shortened: as §1

[10] = test system: barnyardgrass; assay: Test E preemergence; type: in vivo, Echinochloa crus-galli; conditions: for Barnyardgrass plant response rating: scale 0 to 100 (0 no effect, 100 complete control); for Plant response rating, Barnyardgrass: scale 0 to 100, 0 no effect, 100 complete control
Procedure, shortened: as §1

[11] = test system: dayflower; assay: Test E preemergence; type: in vivo, Commelina virginica; conditions: for Dayflower, VA plant response rating: scale 0 to 100 (0 no effect, 100 complete control); for Plant response rating, Dayflower, VA: 125 g ai/ha, scale 0 to 100, 0 no effect, 100 complete control
Procedure, shortened: as §1

[12] = test system: hairy beggarticks; assay: Test E preemergence; type: in vivo, Bidens pilosa; conditions: for Beggarticks plant response rating: scale 0 to 100 (0 no effect, 100 complete control); for Plant response rating, Beggarticks: scale 0 to 100, 0 no effect, 100 complete control
Procedure, shortened: as §1

N#Cc1cccc(Oc2ncc(Br)cn2)c1-n1cc(I)cn1 [Compound 88]
Plant response rating, Kochia ([1]; 125 g ai/ha, 0 to 100 scale where 0 is no effect and 100 is complete control): 100 | Kochia plant response rating ([1]; 500 g ai/ha, 0 to 100 scale, 0 no effect, 100 complete control, approx. 10 days): 100 | Lambsquarters plant response rating ([2]; 16 g ai/ha): 75 | Lambsquarters plant response rating ([2]; 31 g ai/ha): 50 | Lambsquarters plant response rating ([2]; 62 g ai/ha): 100 | Plant response rating, Lambsquarters [2]: 100 | Poinsettia, Wild plant response rating ([3]; 16 g ai/ha): 0 | Poinsettia, Wild plant response rating ([3]; 31 g ai/ha): 0 | Poinsettia, Wild plant response rating ([3]; 62 g ai/ha): 0 | Plant response rating, Poinsettia, Wild [3]: 0 | Surinam Grass plant response rating ([4]; 16 g ai/ha): 0 | Surinam Grass plant response rating ([4]; 31 g ai/ha): 0 | Surinam Grass plant response rating ([4]; 62 g ai/ha): 0 | Plant response rating, Surinam Grass [4]: 10 | Crabgrass, Large plant response rating ([5]; 16 g ai/ha): 0 | Crabgrass, Large plant response rating ([5]; 31 g ai/ha): 35 | Crabgrass, Large plant response rating ([5]; 62 g ai/ha): 65 | Plant response rating, Crabgrass, Large [5]: 95 | Panicum, Fall plant response rating ([6]; 16 g ai/ha): 0 | Panicum, Fall plant response rating ([6]; 31 g ai/ha): 0 | Panicum, Fall plant response rating ([6]; 62 g ai/ha): 0 | Plant response rating, Panicum, Fall [6]: 10 | Goosegrass plant response rating ([7]; 16 g ai/ha): 0 | Goosegrass plant response rating ([7]; 31 g ai/ha): 0 | Goosegrass plant response rating ([7]; 62 g ai/ha): 5 | Plant response rating, Goosegrass [7]: 5 | Johnsongrass plant response rating ([8]; 16 g ai/ha): 0 | Johnsongrass plant response rating ([8]; 31 g ai/ha): 0 | Johnsongrass plant response rating ([8]; 62 g ai/ha): 15 | Plant response rating, Johnsongrass [8]: 15 | Ragweed plant response rating ([9]; 16 g ai/ha): 0 | Ragweed plant response rating ([9]; 31 g ai/ha): 0 | Ragweed plant response rating ([9]; 62 g ai/ha): 0 | Plant response rating, Ragweed [9]: 65 | Barnyardgrass plant response rating ([10]; 16 g ai/ha, preemergence): 0 | Barnyardgrass plant response rating ([10]; 31 g ai/ha, preemergence): 0 | Plant response rating, Barnyardgrass ([10]; Preemergence, 62 g ai/ha): 0 | Plant response rating, Barnyardgrass ([10]; preemergence, 125 g ai/ha): 0 | Dayflower, VA plant response rating ([11]; 16 g ai/ha): 0 | Dayflower, VA plant response rating ([11]; 31 g ai/ha): 0 | Dayflower, VA plant response rating ([11]; 62 g ai/ha): 0 | Plant response rating, Dayflower, VA [11]: 60 | Beggarticks plant response rating ([12]; 16 g ai/ha, preemergence): 0 | Beggarticks plant response rating ([12]; 31 g ai/ha, preemergence): 0 | Plant response rating, Beggarticks ([12]; Preemergence, 62 g ai/ha): 0 | Plant response rating, Beggarticks ([12]; preemergence, 125 g ai/ha): 0

N#Cc1cnn(-c2c(C#N)cccc2Oc2ncc(F)cn2)c1 [Compound 111]
Lambsquarters plant response rating ([2]; 16 g ai/ha): 50 | Lambsquarters plant response rating ([2]; 31 g ai/ha): 80 | Lambsquarters plant response rating ([2]; 62 g ai/ha): 98 | Plant response rating, Lambsquarters [2]: 100 | Poinsettia, Wild plant response rating ([3]; 16 g ai/ha): 15 | Poinsettia, Wild plant response rating ([3]; 31 g ai/ha): 30 | Poinsettia, Wild plant response rating ([3]; 62 g ai/ha): 70 | Plant response rating, Poinsettia, Wild [3]: 85 | Surinam Grass plant response rating ([4]; 16 g ai/ha): 0 | Surinam Grass plant response rating ([4]; 31 g ai/ha): 0 | Surinam Grass plant response rating ([4]; 62 g ai/ha): 0 | Plant response rating, Surinam Grass [4]: 25 | Crabgrass, Large plant response rating ([5]; 16 g ai/ha): 15 | Crabgrass, Large plant response rating ([5]; 31 g ai/ha): 35 | Crabgrass, Large plant response rating ([5]; 62 g ai/ha): 90 | Plant response rating, Crabgrass, Large [5]: 100 | Panicum, Fall plant response rating ([6]; 16 g ai/ha): 0 | Panicum, Fall plant response rating ([6]; 31 g ai/ha): 5 | Panicum, Fall plant response rating ([6]; 62 g ai/ha): 80 | Plant response rating, Panicum, Fall [6]: 100 | Goosegrass plant response rating ([7]; 16 g ai/ha): 0 | Goosegrass plant response rating ([7]; 31 g ai/ha): 5 | Goosegrass plant response rating ([7]; 62 g ai/ha): 40 | Plant response rating, Goosegrass [7]: 65 | Johnsongrass plant response rating ([8]; 16 g ai/ha): 0 | Johnsongrass plant response rating ([8]; 31 g ai/ha): 0 | Johnsongrass plant response rating ([8]; 62 g ai/ha): 15 | Plant response rating, Johnsongrass [8]: 70 | Ragweed plant response rating ([9]; 16 g ai/ha): 25 | Ragweed plant response rating ([9]; 31 g ai/ha): 50 | Ragweed plant response rating ([9]; 62 g ai/ha): 70 | Plant response rating, Ragweed [9]: 90 | Barnyardgrass plant response rating ([10]; 16 g ai/ha, preemergence): 0 | Barnyardgrass plant response rating ([10]; 31 g ai/ha, preemergence): 0 | Plant response rating, Barnyardgrass ([10]; Preemergence, 62 g ai/ha): 0 | Plant response rating, Barnyardgrass ([10]; preemergence, 125 g ai/ha): 35 | Dayflower, VA plant response rating ([11]; 16 g ai/ha): 0 | Dayflower, VA plant response rating ([11]; 31 g ai/ha): 0 | Dayflower, VA plant response rating ([11]; 62 g ai/ha): 20 | Plant response rating, Dayflower, VA [11]: 20 | Beggarticks plant response rating ([12]; 16 g ai/ha, preemergence): 20 | Beggarticks plant response rating ([12]; 31 g ai/ha, preemergence): 30 | Plant response rating, Beggarticks ([12]; Preemergence, 62 g ai/ha): 60 | Plant response rating, Beggarticks ([12]; preemergence, 125 g ai/ha): 80
